The test has as its target WDR5 (Homo sapiens (Human), UniProt P61964). Briefly: FP based competitive binding assay to WDR5. To be noted: for fold increase of binding affinity to WDR5 on acetylation of the free amino group: vs corresponding unacetylated H3 peptide. The protocol: Another aspect of the invention is development of a Fluorescent Polarization (FP) based competitive binding assay. […] Next, the millipolarization (mP) values were measured at different time points in order to determine equilibrium duration and stability.
Accordingly, the optimal protein concentrations for the competitive assay was investigated.
All the FP based experiments were performed in MICROFLUOR® 2 Black, “U” Bottom, 96-well Microtiter Plates (ThermoSci.) and FP was measured as mP units in a microplate reader (Tecan Ultra) with excitation at 485 nm and emission at 530 nm. The Kd of the tracers and the IC50 value of the inhibitors were calculated using GraphPad Prism 4 software.
The binding affinities of the synthetic peptides shown in the study were measured using this competitive binding assay. A pre-incubated complex solution of WDR5Δ23 and the tracer in 120 μl assay buffer were added to dilutions of the test compound in 5 μl DMSO, giving final concentrations of WDR5Δ23 and the tracer of 4 nM and 0.6 nM, respectively. […] The plates were incubated with shaking at room temperature. The mP values were measured after five hours of incubation and Ki values were calculated using the equation described previously(31).

Setting [1] is: 4 nM WDR5Δ23, 0.6 nM 10mer-Thr-FAM tracer, Ki calculated by equation of ref. 31, read-out: Ki ± SD.
[2] abbreviates: 4 nM WDR5Δ23, 0.6 nM 10mer-Thr-FAM tracer, read-out: IC50 ± SD.
The mark [3] stands for this setting: read-out: Binding Affinity to WDR5 (IC50 ± SD), Table 5 peptidomimetics.

We go through 38 molecules from patent publication US9233086B2 (THE REGENTS OF THE UNIVERSITY OF MICHIGAN, priority 2010, dated 2016).

Where two headings read alike, the source gives them in different places. Where a SMILES comes first, the peptide text is derived from it. [ ]: non-standard residue; d: D form. The star is where a group is joined. Isovaleryl = CC(C)CC(=O)*; Isobutyryl = CC(C)C(=O)*; Ac4c = NC1(C(=O)O)CCC1; Aib = CC(C)(N)C(=O)O; NHBn = c1ccc(CN*)cc1; Butyryl = CCCC(=O)*; NHPh = c1ccc(N*)cc1; NHiPr = CC(C)N*; For = O=C*

What is called Ki is the equilibrium dissociation constant of an inhibitor or competing ligand from its target. A word on the IC50: it is the concentration that gives 50% inhibition.

Consider `CC(=O)N[C@@H](C)C(=O)N[C@@H](CCCNC(=N)N)C(N)=O` [Ac-2mer, Ac-AR-NH2] (Ac-Ala-Arg-NH2), for which, under setting [1], the Ki is 27 ± 1.4 µM. For the same molecule, under setting [2], the IC50 is 125 ± 6 µM. Turning to `CC(=O)N[C@@H](C)C(=O)N[C@@H](CCCNC(=N)N)C(=O)N[C@@H](C)C(N)=O` [Ac-3mer, Ac-ARA-NH2] (Ac-Ala-Arg-Ala-NH2), the Ki under setting [1] was 0.12 ± 0.01 µM. Also, the IC50 under setting [2] came to 0.54 ± 0.03 µM. The matching figures for `CC(=O)N[C@@H](C)C(=O)N[C@@H](CCCNC(=N)N)C(=O)N[C@@H](C)C(=O)N[C@@H](CCC(=O)O)C(N)=O` [Ac-4mer, Ac-ARAE-NH2] (Ac-ARAE-NH2): 0.08 ± 0.01 µM and 0.4 ± 0.05 µM.

As for `CC(=O)N[C@@H](C)C(=O)N[C@@H](CCCNC(=N)N)C(=O)N[C@@H](C)C(=O)N[C@@H](CCC(=O)O)C(=O)N[C@H](C(=O)N[C@@H](Cc1c[nH]cn1)C(=O)N[C@@H](CC(C)C)C(=O)N[C@@H](CCCNC(=N)N)C(=O)N[C@@H](CCCCN)C(=O)N[C@@H](CO)C(N)=O)C(C)C` [Ac-10mer], the IC50 under setting [2] was 0.02 ± 0.004 µM. Further, the “times more potent than the WIN peptide” value (Ki ratio vs WIN) is given as 50. The Ki (read-out: Ki) turned out to be 0.003 µM. With `CC(=O)N[C@@H](C)C(=O)N[C@@H](CCCNC(=N)N)C(=O)N[C@H](C(N)=O)[C@@H](C)O` [Ac-H3-3mer, Ac-ART-NH2] (Ac-Ala-Arg-Thr-NH2), the “fold increase of binding affinity to WDR5 on acetylation of the free amino group” value is listed as 1500. The IC50 under setting [2] came out at 0.08 ± 0.003 µM. Also, the Ki (read-out: Ki) stood at 0.02 µM.

With `CC(=O)N[C@@H](C)C(=O)N[C@@H](CCCNC(=N)N)C(=O)N[C@H](C(=O)N[C@@H](CCCCN)C(=O)N[C@@H](CCC(N)=O)C(=O)N[C@H](C(=O)N[C@@H](C)C(=O)N[C@@H](CCCNC(=N)N)C(=O)N[C@@H](CCCCN)C(=O)N[C@@H](CO)C(N)=O)[C@@H](C)O)[C@@H](C)O` [Ac-H3-10mer], the “fold increase of binding affinity to WDR5 on acetylation of the free amino group” value is “greater than 10,000”. Besides, the IC50 under setting [2] came to 0.006 ± 0.002 µM.

In the case of `C[C@H](NC(=O)[C@H](CCCNC(=N)N)NC(=O)[C@H](C)NC=O)C(N)=O` [CHO-3mer, CHO-ARA-NH2] (For-Ala-Arg-Ala-NH2), under setting [1], the Ki is 3.2 ± 0.3 µM. In addition, under setting [2], the IC50 was determined as 14.9 ± 1.4 µM. Also, the “times less potent than Ac-3mer” value (ratio vs Ac-3mer) worked out at 25.

`CCCC[C@H](NC(=O)[C@H](C)NC(C)=O)C(=O)N[C@@H](C)C(N)=O` [Compound 2A]: the IC50 under setting [3] was more than 1 µM. Turning to `CC(=O)N[C@@H](C)C(=O)N[C@@H](CCCN)C(=O)N[C@@H](C)C(N)=O` [Compound 2B], the IC50 under setting [3] is more than 1 µM.

For the molecule `CC(=O)N[C@@H](C)C(=O)N[C@@H](CCCCN)C(=O)N[C@@H](C)C(N)=O` [Compound 2C] (Ac-Ala-Lys-Ala-NH2), the IC50 under setting [3] was more than 1 µM.

On to `CC(=O)N[C@@H](C)C(=O)N[C@H](C(=O)N[C@@H](C)C(N)=O)C1CCN(C(=N)N)CC1` [Compound 2G], for which, under setting [3], the IC50 is more than 10 µM.

With `CC(=O)N[C@@H](C)C(=O)N[C@@H](CCCNC(=N)N)C(=O)N[C@H](C(N)=O)[C@@H](C)O` [Compound 3I] (Ac-Ala-Arg-Thr-NH2), under setting [3], the IC50 was less than 1 µM. In the case of `CC(=O)NC1(C(=O)N[C@@H](CCCNC(=N)N)C(=O)N[C@H](C(N)=O)C(C)C)CC1` [Compound 4A], the IC50 under setting [3] is less than 1 µM. With `CC(=O)NC1(C(=O)N[C@@H](CCCNC(=N)N)C(=O)N[C@H](C(N)=O)C(C)C)CCC1` [Compound 4B], the IC50 under setting [3] was less than 1 µM. Consider `CC(=O)NC1(C(=O)N[C@@H](CCCNC(=N)N)C(=O)N[C@H](C(N)=O)C(C)C)CCCC1` [Compound 4C], for which the IC50 under setting [3] was less than 1 µM.

For the molecule `CC(=O)NC1(C(=O)N[C@@H](CCCNC(=N)N)C(=O)N[C@H](C(N)=O)C(C)C)CCCCC1` [Compound 4D], the IC50 under setting [3] was less than 1 µM. As to `CC(=O)N[C@H](C(=O)N[C@@H](CCCNC(=N)N)C(=O)NC1(C(N)=O)CC1)C(C)C` [Compound 5A], the IC50 under setting [3] was less than 10 µM. For `CC(=O)N[C@H](C(=O)N[C@@H](CCCNC(=N)N)C(=O)NC1(C(N)=O)CCC1)C(C)C` [Compound 5B], the IC50 under setting [3] was less than 10 µM. With `CC(=O)N[C@H](C(=O)N[C@@H](CCCNC(=N)N)C(=O)NC1(C(N)=O)CCCC1)C(C)C` [Compound 5C], the IC50 under setting [3] was less than 1 µM. On to `CC(=O)N[C@H](C(=O)N[C@@H](CCCNC(=N)N)C(=O)NC1(C(N)=O)CCCCC1)C(C)C` [Compound 5D], for which, under setting [3], the IC50 was less than 10 µM. `CC[C@H](NC(=O)[C@H](CCCNC(=N)N)NC(=O)C(C)(C)NC(C)=O)C(N)=O` [Compound 6A]: the IC50 under setting [3] was less than 1 µM. Still for that read-out and setting: the same measure for `CC(=O)NC(C)(C)C(=O)N[C@@H](CCCNC(=N)N)C(=O)NC1(C(N)=O)CCCC1` [Compound 6B]: less than 1 µM; for `CC(=O)NC(C)(C)C(=O)N[C@@H](CCCNC(=N)N)C(=O)N[C@H](C(N)=O)[C@@H](C)O` [Compound 6C] (Ac-[Aib]-Arg-Thr-NH2): less than 1 µM.

For the molecule `CC[C@H](NC(=O)[C@H](CCCNC(=N)N)NC(=O)C1(NC(C)=O)CCC1)C(N)=O` [Compound 6D], under setting [3], the IC50 is less than 1 µM. For the molecule `CC(=O)NC1(C(=O)N[C@@H](CCCNC(=N)N)C(=O)NC2(C(N)=O)CCCC2)CCC1` [Compound 6E], the IC50 under setting [3] was less than 1 µM. Take `CC(=O)NC1(C(=O)N[C@@H](CCCNC(=N)N)C(=O)N[C@H](C(N)=O)[C@@H](C)O)CCC1` [Compound 6F] (Ac-[Ac4c]-Arg-Thr-NH2): under setting [3], the IC50 was less than 1 µM. For the molecule `CCC(CC)(NC(C)=O)C(=O)N[C@@H](CCCNC(=N)N)C(=O)NC1(C(N)=O)CCCC1` [Compound 6G], under setting [3], the IC50 was less than 1 µM.

As to `CC(=O)N[C@@H](C)C(=O)N[C@@H](CCCNC(=N)N)C(=O)N[C@@H](C)C(=O)NC(C)C` [Compound 7A] (Ac-Ala-Arg-Ala-NHiPr), the IC50 under setting [3] was less than 1 µM. On the same count and under the same terms, to `CCC(CC)NC(=O)[C@H](C)NC(=O)[C@H](CCCNC(=N)N)NC(=O)[C@H](C)NC(C)=O` [Compound 7B] belongs less than 1 µM; to `CC(=O)N[C@@H](C)C(=O)N[C@@H](CCCNC(=N)N)C(=O)N[C@@H](C)C(=O)NC1CCCCC1` [Compound 7C], less than 1 µM; to `CC(=O)N[C@@H](C)C(=O)N[C@@H](CCCNC(=N)N)C(=O)N[C@@H](C)C(=O)Nc1ccccc1` [Compound 7D] (Ac-Ala-Arg-Ala-NHPh), less than 1 µM. Consider `CC(=O)N[C@@H](C)C(=O)N[C@@H](CCCNC(=N)N)C(=O)N[C@@H](C)C(=O)NCc1ccccc1` [Compound 7E] (Ac-Ala-Arg-Ala-NHBn), for which, under setting [3], the IC50 is less than 1 µM. Consider `CC(=O)N[C@@H](C)C(=O)N[C@@H](CCCNC(=N)N)C(=O)N[C@@H](C)C(=O)NC(c1ccccc1)c1ccccc1` [Compound 7F], for which the IC50 under setting [3] was less than 1 µM. As for `CC[C@H](NC(=O)[C@H](CCCNC(=N)N)NC(=O)C1(NC(C)=O)CCC1)C(=O)NCc1ccccc1` [Compound 8A], under setting [3], the IC50 was less than 1 µM. For `CC[C@H](NC(=O)[C@H](CCCNC(=N)N)NC(=O)C1(NC(C)=O)CCC1)C(=O)NC(c1ccccc1)c1ccccc1` [Compound 8B], the IC50 under setting [3] was less than 1 µM. In the case of `CC(C)C(=O)N[C@@H](C)C(=O)N[C@@H](CCCNC(=N)N)C(=O)N[C@@H](C)C(N)=O` [Compound 9A] (Isobutyryl-Ala-Arg-Ala-NH2), the IC50 under setting [3] is less than 1 µM. Take `CC(C)CC(=O)N[C@@H](C)C(=O)N[C@@H](CCCNC(=N)N)C(=O)N[C@@H](C)C(N)=O` [Compound 9B] (Isovaleryl-Ala-Arg-Ala-NH2): under setting [3], the IC50 is more than 10 µM. Regarding `CCCC(=O)N[C@@H](C)C(=O)N[C@@H](CCCNC(=N)N)C(=O)N[C@@H](C)C(N)=O` [Compound 9C] (Butyryl-Ala-Arg-Ala-NH2), under setting [3], the IC50 was less than 5 µM.
